Source: US20090281093A1, “ANTI-INFLAMMATORY COMPOUNDS” (C.T.G. PHARMA S.R.L., priority 2005, published 2009)

Test: Activity and safety: five-day once daily gavage treatment of rats, deaths and autopsy of the gastrointestinal tract
Type: in vivo
Details: male rats, once daily by gavage for five days, diclofenac 20 mg/kg, compound of example 1 36 mg/kg; for % deaths: 10 animals/group; for % gastrointestinal ulcer: autopsy at fifth day 6 hr after treatment
Description: Thirty male rats (150-200 g) were divided into three groups of 10 animals/group and treated with vehicle, diclofenac (20 mg/kg) and the compound of example 1 (36 mg/kg) for five days once daily by gavage. The vehicle consisted in 1 mL of acidified aqueous solution. At the fifth day, survival animals were sacrificed 6 hr after the treatment, by an overdose of ether, and autopsied to detect any pathological changes, particularly in the gastrointestinal tract. Prostaglandin E2 was evaluated in the liver homogenate by standard enzyme immunoassay procedure as described by Warner T D et al. (J.P.E.T. 2004, 310, 642-7).

| SMILES | % deaths | % gastrointestinal ulcer |
| --- | --- | --- |
| O=C(Cc1ccccc1Nc1c(Cl)cccc1Cl)Oc1ccc(-c2cc(=S)ss2)cc1 [Compound example 1, 2-[(2,6-dichlorophenyl)amino]benzeneacetic acid 4-(3H-1,2,dithiole-3-thione-5-yl)-phenyl ester] | 0% | 0% |
| O=C(O)Cc1ccccc1Nc1c(Cl)cccc1Cl [Diclofenac] | 70% | 100% |
